In US20250206754A1, “PAN-CHEMOKINE ANTAGONISTS FOR USE IN TREATING CANCER AND IMMUNE DISORDERS” ("Micar Innovation" LTD., priority 2022, published 2025):
Read-outs that look alike come from different tables or passages of the source.

How the values were obtained:
CCR7 [1] = molecular target: T1, CCR7 (Homo sapiens, UniProt P32248); test: TANGO β-arrestin agonist assay, CCR7; assay type: cell-based
T1 construct: expressed in transfected cells
T1 sequence (P32248 25-378): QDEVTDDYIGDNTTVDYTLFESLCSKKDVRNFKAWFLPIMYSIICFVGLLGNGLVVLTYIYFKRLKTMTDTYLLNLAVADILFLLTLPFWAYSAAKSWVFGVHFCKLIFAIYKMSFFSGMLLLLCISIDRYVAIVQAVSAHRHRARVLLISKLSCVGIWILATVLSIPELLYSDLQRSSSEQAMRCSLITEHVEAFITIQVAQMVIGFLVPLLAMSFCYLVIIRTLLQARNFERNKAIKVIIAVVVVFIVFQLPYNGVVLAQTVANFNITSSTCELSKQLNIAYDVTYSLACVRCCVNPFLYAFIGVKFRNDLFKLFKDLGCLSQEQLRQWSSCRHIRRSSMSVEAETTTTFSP
Experimental: Selected compounds were initially sent for both antagonist and agonist TANGO β-arrestin assays. […] Replacement only on the amide group with CN led to strong activity decrease in β-arrestin assay: only 31% activity at about 30 μM and similar one at 100 μM (Table 1). Five more derivatives with replaced amide group were also tested in parallel by Ca^2+ mobilization assay and they all were not active up to the tested concertation of 100 μM.

CCR5 [2] = molecular target: T2, CCR5 (Homo sapiens, UniProt P51681); test: β-arrestin selectivity assay, CCR5; assay type: cell-based
T2 sequence (P51681 whole entry): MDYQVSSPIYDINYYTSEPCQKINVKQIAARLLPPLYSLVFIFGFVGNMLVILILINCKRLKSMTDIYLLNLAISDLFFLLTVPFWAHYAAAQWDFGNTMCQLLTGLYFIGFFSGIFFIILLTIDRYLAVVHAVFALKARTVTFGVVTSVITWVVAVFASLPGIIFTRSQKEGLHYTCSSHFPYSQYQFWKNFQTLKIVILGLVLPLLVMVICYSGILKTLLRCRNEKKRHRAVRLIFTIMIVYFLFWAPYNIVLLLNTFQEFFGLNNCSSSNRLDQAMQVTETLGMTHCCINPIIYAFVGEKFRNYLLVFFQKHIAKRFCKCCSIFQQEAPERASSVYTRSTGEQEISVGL

CCR5 [3] = molecular target: T2, CCR5; test: Ca^2+ mobilization assay, CCR5; assay type: cell-based
Experimental: (§1) The Kb values are also retrieved. […] Finally, to make it more clear the second messenger output for Hit1 and confirm the nature of β-arrestin bias GTPγS and ERK assays were also performed. […] Considering that the ERK is directly related to β-arrestin path and binds directly to the arrestin it was concluded that this compound is β-arrestin biased (Table 1 and FIGS. 3A and 3B). Finally, several other potential hits were identified but the activities were in a range of 25-35% at 100 μM concentration and they were discarded in this disclosure.

CCR7 [4] = molecular target: T1, CCR7; test: ERK assay, CCR7; assay type: cell-based
Experimental: as §1
Current diversity data provide also several additional experimental evidences which are against colloid aggregation activity dependence: • Almost identical steep dose-response curves have been observed for the natural CCL19 and CCL21 agonists. Thus, it seems that this is not unique to Hit 1 case. • Hill coefficient of 1.5 in the ERK experiments and no steep slope (FIG. 3A). Moreover, the ERK dose-response curve looks like a typical single antagonist ligand. • At the same conditions as in the ERK assay the compound was in particular not active in the GTPγS assay up to 100 μM (FIG. 3B). […]

β-lactamase = β-lactamase enzymatic activity counterscreen (colloid aggregation); assay type: biochemical; details: 50 μM
Experimental: To examine the colloid aggregation possibility a β-lactamase enzymatic activity counterscreen assay was performed, which is the commonly adopted tool for detection of such properties of the compounds.

4T-1-luc cells = assay type: in vivo; details: Day 15
IL17 release = test: Inhibition of IL17 release (inflammation model); details: Homo sapiens, read-out: EC50, IL17 release
IL-8 release = details: Homo sapiens, read-out: EC50, IL8 release
Experimental: For this purpose a model for the inhibition of CCL2 release from IL-4, IL-13, IL-22 and IFNγ-stimulated primary human keratinocytes (Eczematous inflammation) was used and also an assay for the inhibition of IL-8 release from IL-17A and TNFα (Psoriatic inflammation). […] Finally, migration assay by MB231cell line was performed.

SMILES: NC(=O)c1ccccc1Oc1ncnc2sc(-c3ccccc3)cc12 [Hit 1, 2-({6-phenylthieno[2,3-d]pyrimidin-4-yl}oxy)benzamide]
- agonist activity (CCR7 [1]): no any agonist activity
- Hill coefficient (CCR5 [2]): 1.9
- IC50 (CCR5 [2]): 1.9 µM
- Kb (CCR5 [3]): 10.5 µM
- Hill-Slope (CCR5 [3]; Ca^2+ assay): 1.2
- IC50 (CCR5 [3]; Ca^2+ mobilization assay): 55 µM
- IC50 (CCR7 [4]; ERK assay): 18.1 µM
- Hill coefficient (CCR7 [4]; ERK experiments): 1.5
- activity on β-lactamase (β-lactamase): −18%
- Animal bioluminescence imaging intensity, Mean (4T-1-luc cells; G2 5 mg/kg p.o. QD): 1.69E+08 10^8 p/s
- Animal bioluminescence imaging intensity, Mean (4T-1-luc cells; G3 30 mg/kg p.o. QD): 1.09E+08 10^8 p/s
- EC50 (IL17 release): 3.78 µM
- EC50 (IL-8 release): 0.733 µM
